PubChem BioAssay AID179 (DTP/NCI, 2004)
pEC50, pIC50: −log10 of the molar value. Activity calls are given as the source filed them.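 The calls were made as follows: active = compounds giving half or more protection of infected cells from virus-caused growth loss, again on retest; inactive = the rest.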 Where a SMILES comes first, the peptide text is derived from it. [ ]: non-standard residue; d: D form. The star is where a group is joined. ξ: configuration not given here. X17 = O=C(OCc1ccccc1)[C@@H]1CCC[C@H]1N*; Fmoc = O=C(OCC1c2ccccc2-c2ccccc21)*; ξW = NC(Cc1c[nH]c2ccccc12)C(=O)O; ξF = NC(Cc1ccccc1)C(=O)O; Boc = CC(C)(C)OC(=O)*; ξK = NCCCCC(N)C(=O)O; ξT = CC(O)C(N)C(=O)O; tBu = CC(C)(C)*

Test system: CEM cells HIV-1 protection, formazan growth assay
Assay: NCI AIDS Antiviral Assay
Conditions: for pIC50: measured here: growth of uninfected CEM cells
Summary of the method: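 CEM (human) cells, HIV-1 infected vs uninfected, 5-point dosing, formazan growth read-out. Retest threshold 50% protection.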

| SMILES | pEC50 | pIC50 | outcome |
| --- | --- | --- | --- |
| Cc1nc2cc3c(cc2n2cccc12)oc1ccccc13 | < 4.35 | 4.45 | – |
| C[C@]12CC[C@H](CC=C(c3cc(Cl)c(O)c(C(=O)O)c3)c3cc(Cl)c(O)c(C(=O)O)c3)C[C@@H]1CC[C@@H]1[C@@H]2CC[C@]2(C)[C@@H](CC=C(c3cc(Cl)c(O)c(C(=O)O)c3)c3cc(Cl)c(O)c(C(=O)O)c3)CC[C@@H]12 | 4.54 | 4.34 | – |
| CC1=C(C(=O)Nc2ccccc2)C(c2ccccc2Cl)C(C(=O)Nc2ccccc2)=C(C)N1 | – | – | inactive |
| OC1COC(c2ccccc2)OC1C1OC(c2ccccc2)OC2COC(c3ccccc3)OC21 (centres undefined) | < 4.00 | < 4.00 | – |
| COc1cccc(NC(=O)c2c(SC)n[nH]c2N)c1 | < 3.70 | < 3.70 | – |
| CCCNC(=S)/N=C\c1c(O)c2ccccc2oc1=O | < 3.70 | < 3.70 | – |
| CC(C)OP(=O)(OC(C)C)c1ncn(-c2ccc([N+](=O)[O-])cc2)n1 | < 3.29 | 3.33 | – |
| [O-][n+]1onc2c3nn(-c4ccccc4)nc3ccc21 | < 3.70 | 4.92 | – |
| Fc1cccc(C2SCc3nc4ccccc4n32)c1F (centres undefined) | – | – | inactive |
| CCn1cc(C(=O)O)c(=O)c2cc(Cl)c(-n3cccc3)cc21 | – | – | inactive |
| COc1cc(OC)nc(-n2c(N)c(C#N)c3ccc([N+](=O)[O-])cc3c2=O)n1 | < 3.70 | < 3.70 | – |
| c1cc(CSP234N5CCN2CCN3CCN4CC5)cc(CSP234N5CCN2CCN3CCN4CC5)c1 | < 4.00 | 4.60 | – |
| [Pt].c1ccc([PH+](CC[PH+](CC[PH+](c2ccccc2)c2ccccc2)c2ccccc2)CC[PH+](c2ccccc2)c2ccccc2)cc1 (centres undefined) | < 4.80 | 4.90 | – |
| COC1=NN2C(OC)(c3ccccc3)c3c(-c4ccccc4)sc(-c4ccccc4)c3C2(c2ccccc2)S1 (centres undefined) | – | – | inactive |
| COC1=NS(=O)(=O)C2CCCCCCC2O1 (centres undefined) | < 3.00 | < 3.00 | – |
| N#Cc1c(N)oc(-c2ccccc2)c1-c1ccccc1 | – | – | inactive |
| CC(C)(C)C1COP(=S)(C(C)(C)C)OC1 (centres undefined) | < 4.84 | < 4.84 | – |
| N#Cc1ccc(C(=O)/C=C/c2ccc(O)c(O)c2)cc1 | < 3.70 | 4.99 | – |
| O=C(O)C(=Cc1ccc([N+](=O)[O-])cc1)C(=O)O | < 2.98 | 3.26 | – |
| OCC(O)C(O)C(O)c1nn(-c2ccc(Cl)cc2)c2nc3cc(Cl)c(Cl)cc3nc12 (centres undefined) | – | – | inactive |
| NNS(=O)(=O)c1ccc(/C=C2\NC(=O)NC2=O)cc1 | < 3.70 | < 3.70 | – |

| SMILES | pEC50 | pIC50 | outcome |
| --- | --- | --- | --- |
| N#CC1CC(c2cccs2)Nc2ccccc2N1 (centres undefined) | < 3.85 | 4.33 | – |
| Cc1cccc(-n2c(N)c(-c3nc4ccccc4[nH]3)sc2=S)c1 | < 5.23 | < 5.23 | – |
| CC(=O)NC1C(=O)N([C@H](COCc2ccccc2)c2ccccc2)[C@@H]1COC(C)(C)C (some centres undefined) | < 3.53 | 3.73 | – |
| NC(CC(=O)O)C(=O)O (centres undefined) | < 4.41 | < 4.41 | – |
| CCOC(=O)NC(Nc1ccc(S(=O)(=O)Nc2ccc(OC)nn2)cc1)(C(F)(F)F)C(F)(F)F | < 3.70 | < 3.70 | – |
| CC1(O)C2(c3ccccc3)CCC[N+]1(C)CC2 (centres undefined) | – | – | inactive |
| Cc1c2c(n3c(nc4ccccc43)c1C#N)N(c1ccc(F)cc1)CC2 | < 3.70 | < 3.70 | – |
| O=C(NCCN1CCCCC1)c1ccc(I)cc1 | < 3.70 | < 3.70 | – |
| CCOc1ccc(N=Cc2cccc3cccnc23)cc1 | – | – | inactive |
| CCOC(=O)c1nc2ccc(C(F)(F)F)cc2[nH]c1=O | < 3.70 | < 3.70 | – |
| C#CCN(CC#C)C(=O)C(=O)c1c[nH]c2ccc(OC)cc12 | < 3.70 | 4.39 | – |
| CC(=O)On1c(-c2ccccc2-c2nc3ccccc3n2OC(C)=O)nc2ccccc21 | < 3.70 | 4.11 | – |
| O=[N+]([O-])c1ccc(N=NN2CCCC2)cc1 | < 3.70 | 4.73 | – |
| O=C(OCCN1CCCC12CCCCC2)C(c1ccccc1)C1C=CCC1 (centres undefined) | < 3.70 | 4.61 | – |
| O=C1N(C2CCCCC2)CC2(Cc3ccccc3)c3ccccc3NC12O (centres undefined) | < 4.70 | < 4.70 | – |
| CCOP(=S)(OCC)Oc1ccc(Sc2ccc(OP(=S)(OCC)OCC)cc2)cc1 | < 3.70 | 4.51 | – |
| COC12OCCN(C)C1=CC(=O)C1(C)N=NCC12 (centres undefined) | – | – | inactive |
| CCCCCCCCCCCCCCCCOC1N(C2CC(N=[N+]=[N-])C(CO)O2)C(=O)NC(=O)[C@]1(C)Cl (some centres undefined) | < 3.70 | 4.50 | – |
| COC(=O)c1ccc(Cc2cc(Cc3ccc(C(=O)OC)cc3)cc(Cc3ccc(C(=O)OC)cc3)c2)cc1 | < 4.60 | < 4.60 | – |
| c1ccc2c(c1)nnn2CNc1ccc(N2CCCCC2)cc1 | < 3.70 | 4.29 | – |
| Cc1cccc(C)c1N=O | – | – | inactive |

| SMILES | pEC50 | pIC50 | outcome |
| --- | --- | --- | --- |
| CN(C)Cc1c(O)ccc2ccccc12 | < 3.33 | 3.61 | – |
| CC(OC(C)(C)C)C(NC(=O)C(CCCCNC(=O)OC(C)(C)C)NC(=O)C(Cc1c[nH]c2ccccc12)NC(=O)C(Cc1ccccc1)NC(=O)OCC1c2ccccc2-c2ccccc21)C(=O)NC(Cc1ccccc1)C(=O)N[C@@H]1CCC[C@H]1C(=O)OCc1ccccc1 (some centres undefined) (Fmoc-[ξF][ξW][ξK](Boc)[ξT](tBu)[ξF]-X17) | – | – | inactive |
| CCCOC(=O)Nc1ccc2c(c1)c1c3[nH]c(=O)c4cccn4c3ccc1n2CC | < 3.70 | < 3.70 | – |
| CCC(C)C(CC)(C(=O)O)C(=O)O (centres undefined) | < 2.88 | 3.42 | – |
| Cc1cccc2c1CC1(Cc3c(C)cccc3C1=O)C2=O | < 3.70 | < 3.70 | – |
| O=NNc1ccc(S(=O)c2ccccc2)cn1 (centres undefined) | < 3.70 | < 3.70 | – |
| COC(=O)C1=C(C)N2CCSC2(C)C(C(=O)OC)C1c1cccc(Cl)c1 (centres undefined) | < 3.70 | 4.37 | – |
| O=C(/C=C/c1ccccc1O)C(c1ccccc1)c1ccccc1 | < 4.92 | < 4.92 | – |
| OCC1c2ccccc2-n2nc(-c3ccccc3)c(O)c21 (centres undefined) | < 3.70 | 5.48 | – |
| Cc1cn(COCCCSc2ccccc2)c(=O)[nH]c1=O | 4.66 | 3.78 | – |
| c1sc(NC2=NCCO2)c2c1CCCC2 | < 3.70 | 3.78 | – |
| C[N+](C)(C)CC(=O)N/N=C(\CCC(=O)NCCc1ccccc1)CC(=O)c1ccccc1 | – | – | inactive |
| CN(C)Cc1cc(C(=O)/C=C/c2ccc(Cl)c(Cl)c2)cc(CN(C)C)c1O | < 3.70 | 5.56 | – |
| Cc1nnc2n1-c1ccccc1-c1[nH]c3ccccc3c1C2 | < 3.70 | 4.65 | – |
| COc1cc2cnc3c4cc(OS(=O)(=O)c5ccccc5)ccc4ccc3c2cc1OC | < 4.84 | < 4.84 | – |
| COc1ccc(N=Nc2ccc3oc(=O)c(C(=O)Nc4ccc(Cl)cc4)cc3c2)cc1 | < 3.70 | 4.48 | – |
| Cc1ccc(C)c2c1C/C(=C\c1ccccc1C(=O)O)C2=O | < 3.70 | 4.08 | – |
| CCc1ccccc1NC(=O)C1=C(C)NC(C)=C(C(=O)Nc2ccccc2CC)C1c1ccc2c(c1)OCO2 | < 4.86 | < 4.86 | – |
| CC(C)OC(=S)SSC(=S)OC(C)C | < 3.70 | 5.16 | – |
| Nc1nc(SSc2nc(N)nc3c2ncn3C2OC(CO)C(O)C2O)c2ncn(C3OC(CO)C(O)C3O)c2n1 (centres undefined) | < 4.70 | 6.47 | – |
| COc1cc(/C=C/c2csnn2)cc(OC)c1OC | < 3.33 | 3.93 | – |
